Series [1] concerns Moloney Murine Leukemia Virus. The series can be described thus: Antiviral screening against Moloney Murine Leukemia Virus (M-MuLV) by XC-assay (plaque reduction, SC-1 cells). The format is cell-based. The conditions noted are these: SC1, SC-1/XC cells, Reed-Muench Method, read-out: ID50 (median inhibitory dose, virus plaque number). The source says:
Assay Procedure For Antiviral […] Against Moloney Murine Leukemia Virus (M-MuLV) By XC-Assay: The XC assay system is an indirect method for quantitation of murine-leukemia virus (MULV) originally described by […] et al, Proc. Nat'l. Acad Sci., 63, 753-758, (1969) and modified by W. Rowe et al, Virology, 42, 1136-1139, (1970). This test is based on the development of syncytial changes in the XC cell line when it is co-cultivated with mouse fibroblast cells (SC-1 cells) productively infected with MULV. The XC cell line was derived from a rat tumor induced by the Prague strain of Rous Sarcoma Virus (RSV) (J. Svobada et al, Folia Biol., 9, 77-81, […]). […] The following day, the cells were inoculated with 0.5 mL of a virus dilution containing 25 μg/mL of DEAE-dextran. […] The virus inoculum was then removed and replaced with 5mL of medium containing appropriate concentration of the test compound (two dishes/concentration). […] The medium (with or without the test compound) was changed at 48 hours. Five days after virus inoculation, the culture fluid was decanted and the cells were irradiated with a "GE" germicidal bulb for 30 seconds (60 ergs/mm^2 /sec UV-light). […] Virus plaques (i.e., areas of the cell sheet containing syncytial cells or focal masses of multinucleated giant cells) were counted using an inverted microscope.

For series [2], the system named is HTLV-III/LAV virus. The following applies: Mitsuya and Broder, supra; cited from earlier work.
The subject of series [3] is HTLV-III/LAV. Briefly: Inhibition of HTLV-III/LAV cytopathic effect in MT-2 cells (visual inspection). The class given is cell-based. The conditions noted are these: for % Apparent CPE (destroyed cells / total cells scored): MT-2 cells, day 7 post-infection. On the technique in general: Cytopathic effects are the visible damage that an infection or toxin causes in cultured cells.

For series [4], the system named is HTLV-III/LAV. The series can be described thus: Fluorescent assay of inhibition of HTLV-III/LAV in MT-2 cells (monoclonal antibody αp18). The following applies: day 7 post-infection. The format is cell-based.
Series [5] has as its system MT-2 cells. Briefly: Viability of HTLV-III/LAV-infected MT-2 cells (trypan blue exclusion). The class given is cell-based. The following applies: Homo sapiens, MT2, 168 h, day 7 post-infection, read-out: % Viable Cells (cells that excluded trypan blue / cells scored).
Series [6] deals with retroviruses, e.g., murine leukemia virus and HTLV III/LAV virus. The series can be described thus: Antiviral activity against retroviruses (general statement). The following applies: murine leukemia virus and HTLV III/LAV virus (the AIDS virus). The format is cell-based.
Series [7] is described as follows: Water solubility (compared with AZT). The format is physicochemical. The following applies: compared with 3'-azido-3'-deoxythymidine (AZT).

The values that follow come from patent US6001818A, “Use of 2',3'-dideoxycytidin-2'-ene (2'- ,3'-dideoxy-2'3'-didehydrocytidine) in treating patients infected with retroviruses” (Yale University, priority 1991, dated 1999).

As for `Nc1ccn([C@H]2CC[C@@H](CO)O2)c(=O)n1` [2',3'-dideoxycytidine, reference compound], the IC50 in series [1] was 4 µM. Further, in series [2], the “potency against HTLV-III/LAV virus in culture” value is on record as “known potent compound against HTLV-III/LAV virus in culture”. Further, the “% Apparent CPE (destroyed cells / total cells scored)” value in series [3] (0.5 μM) is reported as 40 ± 10%; in series [3] (1.0 μM), 1.0 ± 0.0%. The “% Fluoresence (fluorescent cells / total cells scored)” value worked out at 4.3 ± 0.3% in series [4] (0.5 μM) and 0.2 ± 0.1% in series [4] (1.0 μM). Moreover, the viability at 0.5 µM in series [5] is 75%. The viability at 1 µM in series [5] is 96%.

For the compound `Nc1ccn([C@H]2C=C[C@@H](CO)O2)c(=O)n1` [2',3'-dideoxycytidin-2'-ene], in series [1], the IC50 amounted to 3.7 µM. Besides, the entries for the “% Apparent CPE (destroyed cells / total cells scored)” value in series [3] (0.5 μM) and in series [3] (1.0 μM) were 90 ± 0.0% and 0.5 ± 0.5%, respectively. The “effective dose compared with 2',3'-dideoxycytidine” value in series [3] (HTLV-III/LAV infection in vitro, conclusion from Table 2 data) is listed as “effective dose falls in the same range as 2',3'-dideoxycytidine”. Besides, the “antiviral activity against HTLV-III/LAV infection in vitro” value in series [3] (conclusion from Table 2 data) is listed as “has antiviral activity against the HTLV-III/LAV infection in vitro”. In series [6], the “antiviral activity against retroviruses” value is “has antiviral activity against retroviruses”. For the same compound, in series [7], the water solubility entry is reported as “much better water solubility than that of 3'-azido-3'-deoxythymidine (AZT)”. For the same compound, the “% Fluoresence (fluorescent cells / total cells scored)” value in series [4] (0.5 μM) is 5.6 ± 5.5%; in series [4] (1.0 μM), 1.1 ± 0.1%. Further, the viability at 0.5 µM in series [5] was determined as 22%. Moreover, the viability at 1 µM in series [5] was determined as 90%.
